Experimental data: patent US20250011299A1, “PYRIDAZINYL AMINO DERIVATIVES AS ALK5 INHIBITORS” (CHIESI FARMACEUTICI S.P.A., priority 2021, published 2025)
pKi: −log10 of the molar value.

Target: T1, human ALK5 (Homo sapiens, UniProt P36897)
T1 construct: human ALK5 (recombinant TGF β1 N-term GST-tagged, 80-end); GST (N); purchased
T1 sequence (P36897 80-503 limits assumed): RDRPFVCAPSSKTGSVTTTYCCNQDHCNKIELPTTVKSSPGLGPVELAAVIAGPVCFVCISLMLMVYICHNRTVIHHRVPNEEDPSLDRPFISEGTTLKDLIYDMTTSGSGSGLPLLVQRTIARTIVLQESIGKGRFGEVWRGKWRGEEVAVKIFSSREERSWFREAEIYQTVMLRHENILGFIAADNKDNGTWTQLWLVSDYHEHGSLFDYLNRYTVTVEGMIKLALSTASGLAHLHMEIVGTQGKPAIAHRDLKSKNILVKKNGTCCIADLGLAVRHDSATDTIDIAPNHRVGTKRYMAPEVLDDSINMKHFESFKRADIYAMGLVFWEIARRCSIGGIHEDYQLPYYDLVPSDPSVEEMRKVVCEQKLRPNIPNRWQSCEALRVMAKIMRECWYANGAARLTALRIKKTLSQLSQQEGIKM
Assay: ADP-GLO Kinases assay of ALK5 enzymatic activity
Type: biochemical
Conditions: purified recombinant human ALK5, TGFβ1 peptide substrate, pIC50 converted to pKi by Cheng-Prusoff, high ATP protocol (15 μM) for very potent compounds, 25° C.
Method in brief: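 Purified ALK5 preincubated 15 min with compound, then reacted with substrate and ATP; ADP formed read by ADP-Glo luminescence after 120 min or 60 min reaction, all steps at 25° C. 11-point concentration-response; pIC50 converted to pKi via Cheng-Prusoff.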

Compound | pKi
CN1CCN([C@H]2C[C@@H](C(=O)Nc3cc(Nc4cc(-c5cc(Cl)ccc5F)nnc4OC[C@H]4C[C@@](C)(O)C4)ccn3)C2)CC1 [Example 124, Cis N-(4-{[6-(5-chloro-2-fluorophenyl)-3-[(3-hydroxy-3-methylcyclobutyl)methoxy]pyridazin-4-yl]amino}pyridin-2-yl)-3-(4-methylpiperazin-1-yl)cyclobutane-1-carboxamide] | ≥ 10.00
Cc1ccc(F)c(-c2cc(Nc3ccnc(NC(=O)CCN4CCN(C)CC4)c3)c(OCC(F)(F)F)nn2)n1 [Example 68, N-(4-{[6-(3-fluoro-6-methylpyridin-2-yl)-3-(2,2,2-trifluoroethoxy)pyridazin-4-yl]amino}pyridin-2-yl)-3-(4-methylpiperazin-1-yl)propanamide] | 9.50 to 9.90
CN1CC2CC1CN2CC(=O)Nc1cc(Nc2cc(-c3cc(Cl)ccc3F)nnc2SCCO)ccn1 (stereo not drawn) [Example 25, N-(4-{[6-(5-chloro-2-fluorophenyl)-3-[(2-hydroxyethyl)sulfanyl]pyridazin-4-yl]amino}pyridin-2-yl)-2-{5-methyl-2,5-diazabicyclo[2.2.1]heptan-2-yl}acetamide] | ≥ 10.00
CSCCCOc1nnc(-c2cc(Cl)ccc2F)cc1Nc1ccnc(N)c1 [Example 55, N4-[6-(5-chloro-2-fluorophenyl)-3-[3-(methylsulfanyl)propoxy]pyridazin-4-yl]pyridine-2,4-diamine] | 9.50 to 9.90
CN1CCN([C@@H]2CC[C@H](C(=O)Nc3cc(Nc4cc(-c5cc(Cl)ccc5F)nnc4SCCO)ccn3)C2)CC1 (single isomer, unassigned; enantiomer 1) [Example 188, Cis Enantiomer 1 N-(4-{[6-(5-chloro-2-fluorophenyl)-3-[(2-hydroxyethyl)sulfanyl]pyridazin-4-yl]amino}pyridin-2-yl)-3-(4-methylpiperazin-1-yl)cyclopentane-1-carboxamide] | ≥ 10.00
O=C(Nc1cc(Nc2cc(-c3cc(Cl)ccc3F)nnc2SCCO)ccn1)C12CC(CN3CCN(C4CC4)CC3)(C1)C2 [Example 183, N-(4-{[6-(5-chloro-2-fluorophenyl)-3-[(2-hydroxyethyl)sulfanyl]pyridazin-4-yl]amino}pyridin-2-yl)-3-[(4-cyclopropylpiperazin-1-yl)methyl]bicyclo[1.1.1]pentane-1-carboxamide] | 9.50 to 9.90
COC(=O)c1cc2c(Nc3cc(-c4cc(Cl)ccc4F)nnc3OCCCN(C)C)ccnc2[nH]1 [Example 10, methyl 4-{[6-(5-chloro-2-fluorophenyl)-3-[3-(dimethylamino)propoxy]pyridazin-4-yl]amino}-1H-pyrrolo[2,3-b]pyridine-2-carboxylate] | 8.50 to 9.40
CN1CCN([C@H]2C[C@@H](C(=O)Nc3cc(Nc4cc(-c5cc(Cl)ccc5F)nnc4SCCO)ccn3)C2)CC12CC2 [Example 90, Cis N-(4-{[6-(5-chloro-2-fluorophenyl)-3-[(2-hydroxyethyl)sulfanyl]pyridazin-4-yl]amino}pyridin-2-yl)-3-{4-methyl-4,7-diazaspiro[2.5]octan-7-yl}cyclobutane-1-carboxamide] | ≥ 10.00
CCOC(=O)C(C)(C)CN(C)c1nnc(-c2cc(Cl)ccc2F)cc1Nc1ccnc(NC(=O)CCN2CCN(C)CC2)c1 [Example 145, ethyl 3-{[6-(5-chloro-2-fluorophenyl)-4-({2-[3-(4-methylpiperazin-1-yl)propanamido]pyridin-4-yl}amino)pyridazin-3-yl](methyl)amino}-2,2-dimethylpropanoate] | 9.50 to 9.90
CN1CCN(CCC(=O)Nc2cc(Nc3cc(-c4cc(Cl)ccc4F)nnc3SCCNC(=O)C3COC(=O)C3)ccn2)CC1 (racemic) [Example 205, N-(2-{[6-(5-chloro-2-fluorophenyl)-4-({2-[3-(4-methylpiperazin-1-yl)propanamido]pyridin-4-yl}amino)pyridazin-3-yl]sulfanyl}ethyl)-5-oxooxolane-3-carboxamide] | ≥ 10.00
CN1CCN(CCC(=O)Nc2cc(Nc3cc(-c4cc(Cl)ccc4F)nnc3O[C@H]3C[C@@H](CO)C3)ccn2)CC1 [Example 80, N-(4-{[6-(5-chloro-2-fluorophenyl)-3-[3-(hydroxymethyl)cyclobutoxy]pyridazin-4-yl]amino}pyridin-2-yl)-3-(4-methylpiperazin-1-yl)propanamide] | ≥ 10.00
CN1CCN(CCOc2ccc3c(Nc4cc(-c5cc(Cl)ccc5F)nnc4OCCO)ccnc3c2)CC1 [Example 2, 2-{[6-(5-chloro-2-fluorophenyl)-4-({7-[2-(4-methylpiperazin-1-yl)ethoxy]quinolin-4-yl}amino)pyridazin-3-yl]oxy}ethan-1-ol] | ≥ 10.00
